In PMC4510133 (PLoS ONE, 2015):
“And” between values parts separate entries of the source, which are not always exact repeats. Equal values may be shown once. Read-outs that look alike come from different tables or passages of the source. Blank lines part the entries; values can stand above or below the molecule they belong to.

Assays:
spinach Rubisco [1] = target: T1, spinach Rubisco (Spinacia oleracea, UniProt P00875); assay: Radiolabelled [3H]-(±)-ABA binding assay (saturation and competition); design: Commercially available Rubisco from spinach (Sigma-Aldrich); catalogue # R8000; purchased Sigma-Aldrich R8000; details: 25 nM [3H]-(±)-ABA
Protocol: A fresh aliquot of this Rubisco was subsequently dissolved in binding buffer (50 mM bicine, 15 mM MgCl2, 20 mM NaCl, pH 7.9) and placed on ice. The total volume for each assay sample was 30 μL. Protein solution (30 μg protein) was mixed with [^3H]-(±)-ABA (specific activity 37 Ci mmol^-1 radiolabelled: non-radiolabelled ratio 1.8:1) at the indicated concentrations in the presence and absence of 500 μM (+)-ABA, incubated at RT for 30 minutes. Samples (15 μL) from each reaction were transferred into SPN columns (G-biosciences), to which 100 μL of cold OrgoSol^TM buffer (chilled at -20°C) was added. The columns were spun at 10,000 x g for 10 s and the wash repeated once. The matrix of each SPN column was then removed and placed in scintillation vials containing Aqasol^TM scintillation fluid and soaked for at least 24 hours prior to counting radioactivity using a Beckman Coulter Multi-Purpose Scintillation Counter. Control samples not containing the protein, but treated with [^3H]-(±)-ABA, were also prepared and values subtracted from experimental samples. Signal corresponding to specific [^3H]-(±)-ABA binding was calculated from the difference between samples with [^3H]-(±)-ABA and those containing 1000-fold excess of non-radiolabelled (+)-ABA. Each sample was replicated 5–10 times and readings averaged. Competition was performed as described above, with the concentration of [^3H]-(±)-ABA at 25 nM in all samples, and non-radiolabeled (+)-ABA added at the indicated concentrations. The same procedure was applied using non-radiolabeled (-)-ABA, PA (phaseic acid), and trans-ABA. Values obtained for the same experiment washed with a 10,000 fold excess of unlabelled (±)-ABA were subtracted to account for any non-specific binding.

activated Rubisco = details: read-out: Km, activated Rubisco-RuBP complex; activated Rubisco ref 13; cited from earlier work
non-activated Rubisco [2] = target: non-activated Rubisco; design: method as in earlier work; details: 1 unit / mg ref 49, read-out: Kd by ITC; cited from earlier work
non-activated Rubisco [3] = target: non-activated Rubisco; design: method as in PMID 6417133; details: non-activated Rubisco ref 13; read-out: KD, radiolabelled binding assay; cited from earlier work
spinach Rubisco [4] = target: T1, spinach Rubisco; assay: Isothermal titration calorimetry; details: for stoichiometry (n) by ITC: 20°C, Independent binding model
spinach Rubisco [5] = target: T1, spinach Rubisco; assay: Rubisco activation (carbamylation), initial rate analysis with non-activated enzyme; type: biochemical; design: Commercially available Rubisco from spinach (Sigma-Aldrich); catalogue # R8000; purchased Sigma-Aldrich R8000
Protocol: Commercially available Rubisco from spinach (Sigma-Aldrich; catalogue # R8000; S1 Fig; specific activity 0.05 units / mg) was dissolved in a buffer containing 15 mM MgCl2 and 25 mM NaHCO3 at pH 8.0 for activation. Each assay (total volume, 1.0 mL) contained 50 mM Bicine (pH 8.0), 15 mM MgCl2, 10 mM NaCl, 5 mm DTT, 5 mM phosphocreatine, 5 mM ATP, 5 mM phosphoenolpyruvate, and 25 mM NaHCO3. This mixture was prepared before each set of experiments. Five minutes before initiating the reaction with the addition of activated Rubisco, the following were added: RuBP at the indicated concentrations), 0.4 mM NADH, 20 units mL-^-1 of glyceraldehyde-3-phosphate dehydrogenase, 20 units mL-^-1 of 3-phosphoglycerate kinase, and 2 units mL^-1 of creatine phosphokinase. Following the addition of activated Rubisco to a final concentration of 0.3 mg mL^-1, the NADH concentration was measured spectrophotometrically (λ = 340 nm) at 5 s intervals for 5 min. Absorbance values were converted to NADH concentrations using an extinction coefficient of 6.22 mM^-1. Reaction rates were evaluated from the slope of absorbance vs. time curves and plotted against concentration of RuBP. […] The non-activated Rubisco was then pre-incubated on ice for at least 10 minutes with or without the indicated concentrations of (+)-ABA, and the reactions initiated and monitored as described above. […]

ABA-receptor (PYL5) = details: PYL5 ref 48; read-out: Kd by ITC; cited from earlier work

Molecule: CC1=CC(=O)CC(C)(C)[C@]1(O)/C=C/C(C)=C\C(=O)O [(-)-ABA]
Competition: displacement of [3H]-(±)-ABA by non-radiolabeled compound (spinach Rubisco [1]): equally effective as competitors

Competition: displacement of [3H]-(±)-ABA by non-radiolabeled compound (spinach Rubisco [1]): ineffective as competitors
Molecule: CC(=C/C(=O)O)/C=C/[C@]1(O)[C@@]2(C)CO[C@]1(C)CC(=O)C2 [PA, phaseic acid]

Molecule: O=C(COP(=O)(O)O)[C@H](O)[C@H](O)COP(=O)(O)O [RuBP, ribulose-1,5-bisphosphate]
Km (activated Rubisco): 21 µM | Kd (non-activated Rubisco [2]): 0.3 µM | Kd (non-activated Rubisco [3]): 0.021 µM | Kd (spinach Rubisco [4]): 31.4 µM | stoichiometry (n) by ITC (spinach Rubisco [4]): 2.5

Molecule: CC1=CC(=O)CC(C)(C)[C@@]1(O)/C=C/C(C)=C/C(=O)O [trans-(+)-ABA]
Competition: displacement of [3H]-(±)-ABA by non-radiolabeled compound (spinach Rubisco [1]): ineffective as competitors

Molecule: Abscisic acid [(+)-ABA]
effect on initial rate (activation) (spinach Rubisco [5]; 100-250 μM (+)-ABA, 7 mM NaHCO3, S3 Fig, no effect on equilibrium rate (catalysis)): inhibitory effect | potency on Rubisco activation versus Rubisco catalysis (spinach Rubisco [5]; ratio of Ki values): more than 10 fold | Competition: displacement of [3H]-(±)-ABA by non-radiolabeled compound (spinach Rubisco [1]): equally effective as competitors | Kd (ABA-receptor (PYL5)): 1.2 µM | stoichiometry (n) by ITC (spinach Rubisco [4]): 19.9 and 19
